Values quoted from earlier work, collected in patent US20040158054A1, “Di-ribonucleotides as specific viral RNA-polymerase inhibitors for the treatment or prevention of viral infections” (priority 2003, published 2004).

What was measured:
[1] = test system: 6-mercaptopurine-resistant cancer cell lines

In the case of `O=P(O)(OC[C@H]1O[C@@H](n2cnc3c(=S)[nH]cnc32)[C@H](O)[C@@H]1O)OC[C@H]1O[C@@H](n2cnc3c(=S)nc[nH]c32)[C@H](O)[C@@H]1O` [bis(thioinosine)-5′,5′-phosphate], the “fold more potent against neoplastic cells than 6-MP” value (neoplastic cells; relative to 6-MP) is given as 240 fold, the “fold more potent against neoplastic cells than 6-MP riboside” value (neoplastic cells; relative to 6-MP riboside) is given as 25 fold and the “inhibition of 6-mercaptopurine-resistant cancer cell lines” value [1] is given as “inhibit”.
